In patent US5202417A, “60-amino-acid polypeptide” (Takeda Chemical Industries, Ltd., priority 1989, dated 1993):

What was measured:
[1] = isoelectric point of the purified polypeptide; assay type: physicochemical
[2] = tested on: IgG fraction containing anti-hEGF antibody; assay: enzyme immuno assay (EIA) for human EGF, plate sensitized with IgG fraction containing anti-hEGF antibody; assay type: binding, rabbit; conditions: culture solutions of MCF7, MKN-45 and KATO-III; different from EGF
From the text: In order to examine the relationship between the MCF7 cells thus secreting various growth factors and epidermal growth factor (hereinafter referred to as EGF) which is a kind of growth factor, we established an enzyme immuno assay (hereinafter referred to as EIA) which can assay human EGF, and tried to determine it in the culture solutions of MCF7 and human gastric cancer cells MKN-45 and KATO-III. […] It is conceivable that this substance was detected because another antibody was present in the enzyme immuno assay in addition to an antibody against EGF.
An assay system used for detecting the polypeptide of the present invention was prepared in the following manner.
200 μg/ml of an IgG fraction (purified from rabbit serum) containing anti-hEGF antibody was added to 50 mM of Tris-HCl (pH 8.0), and the mixture was poured to a microplate having 96 wells (Sumitomo Bakelite Co.) in an amount of 100 μl/well. After the reaction was conducted at 37° C. for 3 hours, the solution was discarded. Buffer A was further added thereto and blocking was carried out. […]
A plate was washed once with 200 μl/well of buffer A just prior to the use thereof. […] The resultant product was transferred to a Dynamic™ microfluor (for fluorescent enhancer), and the fluorescence was measured with an immunoreader (365 nm excitation, 415 nm fluorescence measurement). […]

anti-PS2 antibodies = assay: immunoreactivity to anti-PS2 antibodies; assay type: binding

## immunoreactive polypeptide: 60-amino-acid polypeptide, N-terminus EAQ, secreted by cancer cells MCF-7, MKN-45 or KATO-III; part of the PS2 precursor protein (EAQTETCTVAPRERQNCGFPGVTPSQCANKGCCFDDTVRGVPWCFYPNTIDVPPEEECEF; UniProt P04155 25-84, looked up)
[1]
  isoelectric point: 4.3
[2]
  immunoreactivity in the EIA: immunoreactive to the EIA
anti-PS2 antibodies
  immunoreactivity to anti-PS2 antibodies: immunoreactive to anti-PS2 antibodies
